What was measured:
Assay in all cases: relative viability (nuclei count vs DMSO), 5 days (fraction); higher = more cells survive
LOU-NH91 = tested on: LOU-NH91
In short: (§1)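 A single step with final 0.05% Triton X-100, 1% formaldehyde and 1 ug/ml Hoechst fixed the cells and stained nuclei 5 days after treatment. Lung cancer cell lines in 1536-well plates had been treated by pin tool the day after seeding with one drug alone or a fixed anchor-drug dose plus five library-drug doses (not always all listed) in √10 steps, and nuclei were counted on 4× images. Relative viability is the ratio of nuclei in treated wells to nuclei in vehicle wells, taken as the median of duplicate plates.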

NCI-H647 = tested on: NCI-H647
In short: as §1

A-427 = tested on: A-427
In short: as §1

NCI-H1793 = tested on: NCI-H1793
In short: as §1

NCI-H1651 = tested on: NCI-H1651
In short: as §1

LXF-289 = tested on: LXF-289
In short: as §1

201T = tested on: 201T
In short: as §1

COR-L23 = tested on: COR-L23
In short: as §1

NCI-H520 = tested on: NCI-H520
In short: as §1

NCI-H23 = tested on: NCI-H23
In short: as §1

HARA = tested on: HARA
In short: as §1

NCI-H522 = tested on: NCI-H522
In short: as §1

NCI-H1650 = tested on: NCI-H1650
In short: as §1

HCC-78 = tested on: HCC-78
In short: as §1

NCI-H838 = tested on: NCI-H838
In short: as §1

NCI-H2405 = tested on: NCI-H2405
In short: as §1

RERF-LC-KJ = tested on: RERF-LC-KJ
In short: as §1

UMC-11 = tested on: UMC-11
In short: as §1

LK-2 = tested on: LK-2
In short: as §1

PC-3 [JPC-3] = tested on: PC-3 [JPC-3]
In short: as §1

LCLC-97TM1 = tested on: LCLC-97TM1
In short: as §1

LCLC-103H = tested on: LCLC-103H
In short: as §1

NCI-H2347 = tested on: NCI-H2347
In short: as §1

Cc1csc(=NC2CCCCC2)n1/N=C/c1ccc(O)c(O)c1O [MIM1] + N=C(N)NC(=N)NCCc1ccccc1 [Phenformin] (partner 250 µM)
relative viability (LOU-NH91; first compound 0.2 µM): 0.695
relative viability (LOU-NH91; first compound 0.6325 µM): 0.709
relative viability (LOU-NH91; first compound 2 µM): 0.625
relative viability (LOU-NH91; first compound 6.325 µM): 0.548
relative viability (LOU-NH91; first compound 20 µM): 0.302
relative viability (NCI-H647; first compound 0.2 µM): 0.602
relative viability (NCI-H647; first compound 0.6325 µM): 0.431
relative viability (NCI-H647; first compound 6.325 µM): 0.4
relative viability (NCI-H647; first compound 20 µM): 0.0969
relative viability (A-427; first compound 0.2 µM): 0.35
relative viability (A-427; first compound 2 µM): 0.361
relative viability (A-427; first compound 6.325 µM): 0.244
relative viability (A-427; first compound 20 µM): 0.137
relative viability (NCI-H1793; first compound 0.2 µM): 0.389
relative viability (NCI-H1793; first compound 2 µM): 0.351
relative viability (NCI-H1793; first compound 6.325 µM): 0.373
relative viability (NCI-H1793; first compound 20 µM): 0.302
relative viability (NCI-H1651; first compound 0.2 µM): 0.351
relative viability (NCI-H1651; first compound 0.6325 µM): 0.275
relative viability (NCI-H1651; first compound 2 µM): 0.39
relative viability (NCI-H1651; first compound 6.325 µM): 0.291
relative viability (NCI-H1651; first compound 20 µM): 0.165
relative viability (LXF-289; first compound 0.2 µM): 0.517
relative viability (LXF-289; first compound 0.6325 µM): 0.476
relative viability (LXF-289; first compound 2 µM): 0.532
relative viability (LXF-289; first compound 6.325 µM): 0.452
relative viability (LXF-289; first compound 20 µM): 0.264
relative viability (201T; first compound 0.2 µM): 0.456
relative viability (201T; first compound 0.6325 µM): 0.414
relative viability (201T; first compound 2 µM): 0.451
relative viability (201T; first compound 6.325 µM): 0.345
relative viability (201T; first compound 20 µM): 0.321
relative viability (COR-L23; first compound 0.2 µM): 0.434
relative viability (COR-L23; first compound 0.6325 µM): 0.437
relative viability (COR-L23; first compound 2 µM): 0.37
relative viability (COR-L23; first compound 6.325 µM): 0.373
relative viability (COR-L23; first compound 20 µM): 0.187
relative viability (NCI-H520; first compound 0.2 µM): 0.793
relative viability (NCI-H520; first compound 0.6325 µM): 0.512
relative viability (NCI-H520; first compound 2 µM): 0.561
relative viability (NCI-H520; first compound 6.325 µM): 0.447
relative viability (NCI-H520; first compound 20 µM): 0.323
relative viability (NCI-H23; first compound 0.2 µM): 0.809
relative viability (NCI-H23; first compound 2 µM): 0.711
relative viability (NCI-H23; first compound 6.325 µM): 0.598
relative viability (NCI-H23; first compound 20 µM): 0.2
relative viability (HARA; first compound 0.2 µM): 0.455
relative viability (HARA; first compound 2 µM): 0.49
relative viability (HARA; first compound 6.325 µM): 0.16
relative viability (HARA; first compound 20 µM): 0.0907
relative viability (NCI-H522; first compound 0.2 µM): 0.697
relative viability (NCI-H522; first compound 0.6325 µM): 0.665
relative viability (NCI-H522; first compound 2 µM): 0.672
relative viability (NCI-H522; first compound 6.325 µM): 0.52
relative viability (NCI-H522; first compound 20 µM): 0.571
relative viability (NCI-H1650; first compound 0.2 µM): 0.461
relative viability (NCI-H1650; first compound 0.6325 µM): 0.406
relative viability (NCI-H1650; first compound 2 µM): 0.412
relative viability (NCI-H1650; first compound 6.325 µM): 0.155
relative viability (NCI-H1650; first compound 20 µM): 0.164
relative viability (HCC-78; first compound 0.2 µM): 0.81
relative viability (HCC-78; first compound 0.6325 µM): 0.53
relative viability (HCC-78; first compound 2 µM): 0.628
relative viability (HCC-78; first compound 6.325 µM): 0.597
relative viability (HCC-78; first compound 20 µM): 0.347
relative viability (NCI-H838; first compound 0.2 µM): 0.543
relative viability (NCI-H838; first compound 0.6325 µM): 0.621
relative viability (NCI-H838; first compound 2 µM): 0.562
relative viability (NCI-H838; first compound 6.325 µM): 0.354
relative viability (NCI-H838; first compound 20 µM): 0.14
relative viability (NCI-H2405; first compound 0.2 µM): 0.402
relative viability (NCI-H2405; first compound 0.6325 µM): 0.375
relative viability (NCI-H2405; first compound 2 µM): 0.385
relative viability (NCI-H2405; first compound 6.325 µM): 0.386
relative viability (NCI-H2405; first compound 20 µM): 0.371
relative viability (RERF-LC-KJ; first compound 0.2 µM): 0.447
relative viability (RERF-LC-KJ; first compound 0.6325 µM): 0.414
relative viability (RERF-LC-KJ; first compound 2 µM): 0.348
relative viability (RERF-LC-KJ; first compound 6.325 µM): 0.353
relative viability (RERF-LC-KJ; first compound 20 µM): 0.303
relative viability (UMC-11; first compound 0.2 µM): 0.326
relative viability (UMC-11; first compound 2 µM): 0.336
relative viability (UMC-11; first compound 6.325 µM): 0.291
relative viability (UMC-11; first compound 20 µM): 0.201
relative viability (LK-2; first compound 0.2 µM): 0.602
relative viability (LK-2; first compound 2 µM): 0.49
relative viability (LK-2; first compound 6.325 µM): 0.147
relative viability (LK-2; first compound 20 µM): 0.148
relative viability (PC-3 [JPC-3]; first compound 0.2 µM): 0.458
relative viability (PC-3 [JPC-3]; first compound 0.6325 µM): 0.488
relative viability (PC-3 [JPC-3]; first compound 2 µM): 0.517
relative viability (PC-3 [JPC-3]; first compound 6.325 µM): 0.469
relative viability (PC-3 [JPC-3]; first compound 20 µM): 0.361
relative viability (LCLC-97TM1; first compound 0.2 µM): 0.445
relative viability (LCLC-97TM1; first compound 0.6325 µM): 0.434
relative viability (LCLC-97TM1; first compound 2 µM): 0.413
relative viability (LCLC-97TM1; first compound 6.325 µM): 0.312
relative viability (LCLC-97TM1; first compound 20 µM): 0.142
relative viability (LCLC-103H; first compound 0.2 µM): 0.334
relative viability (LCLC-103H; first compound 0.6325 µM): 0.297
relative viability (LCLC-103H; first compound 2 µM): 0.354
relative viability (LCLC-103H; first compound 6.325 µM): 0.334
relative viability (LCLC-103H; first compound 20 µM): 0.291
relative viability (NCI-H2347; first compound 0.2 µM): 0.435
relative viability (NCI-H2347; first compound 0.6325 µM): 0.32
relative viability (NCI-H2347; first compound 2 µM): 0.387
relative viability (NCI-H2347; first compound 6.325 µM): 0.39
relative viability (NCI-H2347; first compound 20 µM): 0.288

— the supplement of paper PMC10307832
